Measured values as given in patent US20090275503A1, “DIASTEREOMERIC PEPTIDES FOR MODULATING T CELL IMMUNITY” (Yeda Research and Developent Co., Ltd. at the Weizman …, priority 2005, published 2009).
Non-standard residues stand in square brackets, D forms with d. Residues, ends and D or L forms follow the SMILES beside them. No end group written: not given here.

Tests used:
rat TCR = experiment: Co-immunoprecipitation of fluorescence-labeled peptides with TCR molecules; assay type: binding; settings: Rho-labeled peptides
Description: Activated A2b T cells (2×10^6) were cultured for 1 hr at 37° C. in the presence of CP or 2D-CP (25 μg/ml), or 2G-CP, and lysed for 15 min on ice in 0.1 ml lysis buffer (Adachi et al., 1996). Insoluble material was removed by centrifugation at 10.000 g for 10 min at 4° C. The lysate was then incubated overnight with Protein A-plus Agarose beads (Santa Cruz Biotechnology Inc., Santa Cruz, Calif., USA) bound to antibodies to the rat TCR or MHC class 1. The antibodies reactive against the rat TCR (clone R73) or HSP60 (clone LKI) were purified from the respective hybridomas at our lab; antibodies to rat CD28, actin and the rat MHC class 1 were purchased from Serotec (Oxford, UK). After an overnight incubation at 4° C., the beads were washed with lysis buffer, boiled for 10 minutes and the protein supernatant run in a 4-20% SDS-PAGE. The presence of co-immunoprecipitated peptide was detected by the Typhoon 9400 variable mode imager.
Next, co-immunoprecipitation experiments were performed. The affinity of the TCR/CP, the TCR/2D-CP and TCR/2G-CP interactions were compared by performing a series of co-precipitation experiments using different concentrations of Rho-labeled CP, 2D-CP and 2G-CP peptides.

Lewis rats [1] = experiment: Delayed type hypersensitivity to PPD in AA rats (Part A); assay type: in vivo, rat; settings: 16 days after AA induction, ear thickness 48 hr after PPD
Description: (§1) Twenty μl of PPD (0.5 mg/ml in PBS) were injected intradermally into the pinna of the right ear of each rat on day 16 after AA induction; 20 μl of sterile PBS were injected in the left ear as control. The thickness of the ear was measured 48 hr later using a vernier caliper and expressed as the difference between the right and the left ear (Quintana et al., 2005).

target cells = experiment: Cytotoxic effect on the target cells (Part A); settings: incubated with the target cells
LNC from Mt primed rats = experiment: T-cell proliferation of LNC from Mt-immunized rats activated with PPD or Mt176-90 (Part A); assay type: cell-based, rat; settings: LNC, 72 hr, 3H-thymidine incorporation
Lewis rats [2] = experiment: Adjuvant arthritis (AA) in Lewis rats (Part A); assay type: in vivo, rat
Description: (§2) To test the effect of CP on T-cell activation in vivo, the experimental T-cell mediated autoimmune disease adjuvant arthritis (AA) was used. AA was induced by injecting 50 μl of Mt suspended in IFA (10 mg/ml) at the base of the tail. At the time of AA induction, each rat also received 100 μg of all-L CP, 2D-CP or 2G CP control peptide (or PBS) dissolved in 50 μl of IFA and mixed with Mt/IFA used to induce AA. The day of AA induction was designated as day 0. Disease severity was assessed by direct observation of all 4 limbs in each animal. A relative score between 0 and 4 was assigned to each limb, based on the degree of joint inflammation, redness and deformity; thus the maximum possible score for an individual animal was 16 (Quintana et al., 2002). The mean AA score (±SEM) is shown for each experimental group. Arthritis was also quantified by measuring hind limb diameter with a caliper. Measurements were taken on the day of the induction of AA and 26 days later (at the peak of AA); the results are presented as the mean±SEM of the difference between the two values for all the animals in each group. The person who scored the disease was blinded to the identity of the groups.
Next, the contribution of the secondary structure and the side-chains to the inhibitory effects of CP on T cell activation In vivo was analyzed, using the experimental autoimmune disease Adjuvant Arthritis (AA). Immunization of Lewis rats with Mt triggers AA, an autoimmune disease driven by Mt-specific T cells that cross-react with self-antigen (Holoshitz et al., 1984; Holoshitz et al., 1983). PPD and Mt176-90 are targeted by the arthritogenic T-cell response (Anderton et al., 1994); indeed immunomodulatory therapies that inhibit the progression of arthritis have been associated with a decreased T cell response to PPD and Mt176-90 and with a diminished delayed type hypersensitivity (DTH) response to PPD (van Eden et al., 1985).

BALB/c mice = experiment: Delayed type hypersensitivity to oxazalone in mice; assay type: in vivo, mouse; settings: topical treatment 1 hr after oxazalone challenge; peptides 150 μg (6 mg/kg) in DMSO; measured following day
Description: Groups of 5 female inbred BALB/c mice (The Jackson Laboratory) were sensitized on the shaved abdominal skin with 100 μl of 2% Oxazalone dissolved in acetone/olive oil [4:1 (vol/vol)] applied topically. DTH sensitivity was elicited 5 days later by challenging the mice with 20 μl of 0.5% Oxazalone in acetone/olive oil, 10 μl administered topically to each side of the ear. A constant area of the ear was measured immediately before challenge and 24 h after challenge with a Mitutoyo engineer's micrometer. The individual measuring ear swelling was unaware of the identity of the groups of mice. The DTH reaction is presented as the increment of ear swelling after challenge expressed as the mean±SEM in units of 10-2 mm. One hour after the challenge the mice's ears were treated topically with either all-L CP or with 2D-CP, both dissolved in 40 μl DMSO. The activity of the peptide treatments was compared to treatment with DMSO alone for “untreated mice” and Dexamethasone (100 μg/ml in saline) as a positive control.
To test whether TCR trans-membrane peptides could inhibit the elicitation of existing DTH reactivity, groups of naïve BALB/c mice were sensitized to 2% oxazalone. Five days later, the mice were challenged with 0.5% oxazalone administered to the ear. An hour after the challenge, the mice were treated with Dimethylsulfoxide (DMSO), all-L CP 150 μg (6 mg/kg) in DMSO, 2D-CP 150 μg (6 mg/kg) in DMSO, or dexamethasone, applied topically. On the following day, ear thickness was measured the swelling of DMSO treated mice (0.33±0.01 mm) was compared to that of mice treated with all-L CP (0.30±0.01 mm), 2D-CP (0.27±0.01 mm) and Dexamethasone (0.15±0.02 mm). […] Thus, 2D-CP can inhibit a T-cell mediated immune reaction in subjects already sensitized to the antigen.

[3] = system: LNC from Mt-immunized rats; experiment: T-cell proliferation of LNC or A2b T cell line (Part B, amidated peptides); assay type: cell-based, rat; settings: for Inhibition of T-cell proliferative responses to PPD and to Mt176-90: amidated peptides, LNC, 72 hr
cells = experiment: Cytotoxicity when incubated with cells (Part B); assay type: cell-based, rat
Lewis rats [4] = experiment: Adjuvant arthritis (AA) in Lewis rats (Part B); assay type: in vivo, rat; settings: for Mean maximum AA score: 100 μg amidated peptide per rat at AA induction, maximum possible score 16; for Effect on adjuvant arthritis (clinical score and ankle swelling): 100 μg amidated peptide per rat with the antigen at AA induction
Description: as §2, with “we used AA as a model system.” for “the experimental T-cell mediated autoimmune disease adjuvant arthritis (AA) was used.”, “(0.5” for “(10”, “L-CP, D-CP” for “all-L CP, 2D-CP”, “16.” for “16 (Quintana et al., 2002).”
To test the inhibitory effects of CP on the activation of specific T cells in vivo, we used the adjuvant arthritis (AA) model. Immunization of Lewis rats with Mt in oil triggers AA, an experimental autoimmune disease driven by Mt-specific T cells cross-reactive with self-antigens. Mt176-90-specific T cells are detectable upon induction of AA; indeed the A2b T-cell clone cross-reacts with cartilage and mediates AA. Since L and D-CP inhibited the T-cell response of primed LNC and of clone A2b to PPD and […] in vitro (FIG. 9), we also investigated the effects of L- or D-CP on the in vivo activation of the T cells that drive AA. […] The mean maximum score was 12±0.3 in the control-treated rats, compared with 6±0.7 in the D-CP-treated rats and 7.3±0.7 in the L-CP-treated rats (p<0.05 for the L and D-CP groups compared to the control groups).

Lewis rats [5] = experiment: Delayed type hypersensitivity (DTH) to PPD in AA rats (Part B); assay type: in vivo, rat; settings: 16 days after AA induction
Description: as §1, with “ear” for “ear of each rat”, “ear.” for “ear (Quintana et al., 2005).”
The activity of the T cells that mediate AA can also be detected in vivo by studying the delayed type hypersensitivity (DTH) response to PPD. We studied the DTH response to PPD 16 days after AA induction in rats treated with the three peptides.

Row | Molecule | Co-precipitation with the TCR (rat TCR; activated A2b T cells) | Affinity of TCR interaction compared with TCR/2D-CP (rat TCR; different concentrations) | Reduction in the DTH response to PPD (Lewis rats [1]) | Cytotoxic effect (target cells) | Inhibition of T-cell proliferation to PPD and to Mt176-90 (LNC from Mt primed rats) | Mean maximum AA score (Lewis rats [2]; 100 μg peptide per rat at AA induction, maximum possible score 16) | Effect on adjuvant arthritis (clinical score and paw swelling) (Lewis rats [2]; 100 μg peptide per rat with Mt at the time of AA induction) | Ear swelling (BALB/c mice) | Inhibition of T-cell proliferative responses to PPD and to Mt176-90 [3] | Cytotoxicity (cells) | Mean maximum AA score (Lewis rats [4]) | Effect on adjuvant arthritis (clinical score and ankle swelling) (Lewis rats [4]) | Reduction in the DTH response to PPD (Lewis rats [5]) | Inhibition of T-cell proliferation compared with L-CP ([3]; at the lower concentrations)
1 | GLRILLLKV [all-L CP] (GLRILLLKV-NH2; listed as Homo sapiens) [wild-type core peptide derived from murine TCRα transmembrane domain, reference compound] | can be co-precipitated with the TCR | higher affinity | 39% | None of the peptides (all-L CP, 2D-CP or 2G CP) had a cytotoxic effect | inhibited T-cell proliferation to PPD and to Mt176-90 in a dose-dependent manner | 7.7±0.7 | significantly milder arthritis | 0.30±0.01 mm | – | – | – | – | – | –
2 | C[C@@H]1C[C@H]2[C@@H]3CCC4=CC(=O)C=C[C@]4(C)[C@@]3(F)[C@@H](O)C[C@]2(C)[C@@]1(O)C(=O)CO [Dexamethasone, reference compound] | – | – | – | – | – | – | – | 0.15±0.02 mm | – | – | – | – | – | –
3 | GLRILLLKV-NH2 [L-CP, X-GLRILLLKV-NH2, reference compound] | – | – | – | – | – | – | – | – | inhibited the T-cell proliferative responses to PPD and to Mt176-90 in a dose-dependent manner | showed no cytotoxicity | 7.3±0.7 | significantly milder arthritis | 39% | –
4 | CC[C@@H](C)[C@@H](NC(=O)[C@@H](CCCNC(=N)N)NC(=O)[C@@H](CC(C)C)NC(=O)CN)C(=O)N[C@H](CC(C)C)C(=O)N[C@H](CC(C)C)C(=O)N[C@H](CC(C)C)C(=O)N[C@H](CCCCN)C(=O)N[C@@H](C(N)=O)C(C)C [D-CP, X-GLRILLLKV-NH2] (H-G[dL][dR][dI][dL][dL][dL][dK][dV]-NH2) | – | – | – | – | – | – | – | – | inhibited the T-cell proliferative responses to PPD and to Mt176-90 in a dose-dependent manner | showed no cytotoxicity | 6±0.7 | significantly milder arthritis | 48% | consistently higher
